Experimental findings from ChEMBL document CHEMBL3044804, “Morphogenetic and Toxic Activity of Seven Novel 2, 2-Dimethylchromene Derivatives on Larvae of Oncopeltus fasciatus and Pieris brassicae” (1991) are described below.

Assay type in all cases: functional
The test system of assay [1] is Oncopeltus fasciatus. The experiment in a line: Morphogenetic activity against fifth-instar nymphs of Oncopeltus fasciatus assessed as occurrence of precocious metamorphosis at 3 ug/cm'2.
Assay [2] concerns Oncopeltus fasciatus. The assay can be described thus: Morphogenetic activity against fourth-instar nymphs of Oncopeltus fasciatus assessed as occurrence of precocious metamorphosis at 3 ug/cm'2.
For assay [3], the system named is Oncopeltus fasciatus. The experiment in a line: Morphogenetic activity against third-instar nymphs of Oncopeltus fasciatus assessed as occurrence of precocious metamorphosis at 3 ug/cm'2.
The next assay relates to Pieris brassicae. The assay can be described thus: Insecticidal activity against fourth-instar larvae of Pieris brassicae assessed as mortality per insect after 5 days.
Assay [4] concerns Oncopeltus fasciatus. The assay can be described thus: Morphogenetic activity against second-instar nymphs of Oncopeltus fasciatus assessed as mortality at 3 ug/cm'2.

Regarding `CCOc1cc2c(c(C)c1OC)C=CC(C)(C)O2`, the Activity in the assay with Oncopeltus fasciatus [1] is listed as 0%; with Oncopeltus fasciatus [2], 95%; in the assay with Oncopeltus fasciatus [3], 0%; with Oncopeltus fasciatus [4], 5%. Also, in the assay on Pieris brassicae, the LD50 came out at 88.3 µg.

On to `C#CCOc1cc2c(c(C)c1OC)C=CC(C)(C)O2`, for which the Activity in the assay with Oncopeltus fasciatus [1] stood at 20%; with Oncopeltus fasciatus [2], 0%; with Oncopeltus fasciatus [3], 0%; with Oncopeltus fasciatus [4], 30%. Besides, in the assay with Pieris brassicae, the LD50 came to 29.9 µg.

Turning to `COc1cc2c(cc1OC)OC(C)(C)C=C2` [PROCOCENE II], the Activity with Oncopeltus fasciatus [1] came out at 5%; with Oncopeltus fasciatus [2], 27.5%; with Oncopeltus fasciatus [3] it was 22.5%; in the assay on Oncopeltus fasciatus [4], 45%. The LD50 in the assay with Pieris brassicae is 39.5 µg.

Take `CCC(C)Oc1cc2c(c(C)c1OC)C=CC(C)(C)O2` (configuration not stated): the Activity is recorded as 37.5% in the assay with Oncopeltus fasciatus [1], 0% in the assay with Oncopeltus fasciatus [2], 0% in the assay on Oncopeltus fasciatus [3] and 47.5% in the assay with Oncopeltus fasciatus [4]. Besides, the LD50 with Pieris brassicae was found to be 20 µg.

For `CCOc1c(OC)cc2c(c1C)C=CC(C)(C)O2`, the Activity turned out to be 37.5% with Oncopeltus fasciatus [2], 0% in the assay on Oncopeltus fasciatus [3] and 52.5% in the assay with Oncopeltus fasciatus [4]. Also, the LD50 with Pieris brassicae is 71 µg.

On to `COc1cc2c(c(C)c1OC)C=CC(C)(C)O2`, for which the Activity is 0% in the assay with Oncopeltus fasciatus [1], 45% with Oncopeltus fasciatus [2], 25% with Oncopeltus fasciatus [3] and 30% in the assay with Oncopeltus fasciatus [4]. In the assay with Pieris brassicae, the LD50 turned out to be 96.5 µg.

Consider `CCOc1cc2c(cc1OC)C=CC(C)(C)O2`, for which the Activity in the assay with Oncopeltus fasciatus [1] turned out to be 15%; in the assay on Oncopeltus fasciatus [2] it was 5%; with Oncopeltus fasciatus [3], 60%; in the assay with Oncopeltus fasciatus [4], 20%. Besides, the LD50 in the assay on Pieris brassicae is 24.5 µg.

With `CCCOc1cc2c(c(C)c1OC)C=CC(C)(C)O2`, the Activity is given as 0% in the assay on Oncopeltus fasciatus [1], 80% in the assay on Oncopeltus fasciatus [2], 0% in the assay with Oncopeltus fasciatus [3] and 15% in the assay with Oncopeltus fasciatus [4]. Further, in the assay with Pieris brassicae, the LD50 was 32.7 µg.

Take `COc1c(OC2CCCC2)cc2c(c1C)C=CC(C)(C)O2`: the Activity with Oncopeltus fasciatus [3] is 0%; in the assay on Oncopeltus fasciatus [4], 52.5%. Besides, in the assay with Pieris brassicae, the LD50 turned out to be 22.4 µg.
